# Measurements: patent US9499467B2, “Ortho-fluoro substituted compounds for the treatment of metabolic diseases” (CALDAN THERAPEUTICS LIMITED, priority 2011, dated 2016)
# Target: T1, GPR40 (Homo sapiens, UniProt O14842)
# T1 construct: expressed in transfected cells
# Assay: Calcium mobilization in GPR40-transfected cells
# Format: cell-based
# Conditions: calcium mobilization in GPR40-transfed cells
# Protocol: The compounds were tested for their ability to mobilize calcium in GPR40-transfed cells as described by Christiansen et al. (J. Med. Chem. 2011, 54, 6691-6703).
# T1 sequence (O14842 whole entry): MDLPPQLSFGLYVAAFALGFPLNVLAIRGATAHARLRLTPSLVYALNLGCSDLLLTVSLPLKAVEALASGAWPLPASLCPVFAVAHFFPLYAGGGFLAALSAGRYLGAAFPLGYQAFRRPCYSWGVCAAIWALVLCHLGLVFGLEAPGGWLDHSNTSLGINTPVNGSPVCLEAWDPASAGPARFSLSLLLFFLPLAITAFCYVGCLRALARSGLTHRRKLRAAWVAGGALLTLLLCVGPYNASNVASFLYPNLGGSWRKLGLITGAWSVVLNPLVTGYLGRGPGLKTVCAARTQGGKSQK
row,GPR40 activity (pEC50),Structure (SMILES)
1,7.43,"C/C=C(\C)C#Cc1ccc(CCC(=O)O)c(F)c1 [Example 4, (E)-3-(2-Fluoro-4-(3-methylpent-3-en-1-yn-1-yl)phenyl)propanoic acid]"
2,7.69,"C/C=C(/C)C#Cc1ccc(CCC(=O)O)c(F)c1 [Example 3, (Z)-3-(2-Fluoro-4-(3-methylpent-3-en-1-yn-1-yl)phenyl)propanoic acid]"
3,7.48,"Cc1ccccc1C#Cc1ccc(CCC(=O)O)c(F)c1 [Example 5, 3-(2-Fluoro-4-(o-tolylethynyl)phenyl)propanoic acid]"
4,7.42,"O=C(O)CCc1ccc(C#Cc2cc(Cl)cc(Cl)c2)cc1F [Example 13, 3-(4-((3,5-Dichlorophenyl)ethynyl)-2-fluorophenyl)propanoic acid]"
5,7.77,"Cc1ccc(C#N)cc1C#Cc1ccc(CCC(=O)O)c(F)c1 [Example 7, 3-(4-((5-Cyano-2-methylphenyl)ethynyl)-2-fluorophenyl)propanoic acid]"
6,6.84,"O=C(O)CCc1ccc(C#Cc2ccccc2)c(F)c1 [Example 11, 3-(3-Fluoro-4-(phenylethynyl)phenyl)propanoic acid]"
7,5.71,"CS(=O)(=O)Cc1cccc(C#Cc2ccc(CCC(=O)O)c(F)c2)c1 [Example 9, 3-(2-Fluoro-4-((3-((methylsulfonyl)methyl)phenyl)ethynyl)phenyl)propanoic acid]"
8,6.85,"O=C(O)CCc1c(F)cc(C#Cc2ccccc2)cc1F [Example 10, 3-(2,6-Difluoro-4-(phenylethynyl)phenyl)propanoic acid]"
9,7.09,"C=C(C)C#Cc1ccc(CCC(=O)O)c(F)c1 [Example 2, 3-(2-Fluoro-4-(3-methylbut-3-en-1-yn-1-yl)phenyl)propanoic acid]"
10,7.74,"O=C(O)CCc1ccc(C#Cc2cc(F)ccc2C(F)F)cc1F [Example 14, 3-(4-((2-(Difluoromethyl)-5-fluorophenyl)ethynyl)-2-fluorophenyl)propanoic acid]"
11,6.37,"C/C(C#Cc1ccc(CCC(=O)O)c(F)c1)=C/CO [Example 12, (Z)-3-(2-Fluoro-4-(5-hydroxy-3-methylpent-3-en-1-yn-1-yl)phenyl)propanoic acid]"
12,5.84,"CS(=O)(=O)Cc1ccccc1C#Cc1ccc(CCC(=O)O)c(F)c1 [Example 8, 3-(2-Fluoro-4-((2-((methylsulfonyl)methyl)phenyl)ethynyl)phenyl)propanoic acid]"

row,Structure (SMILES),GPR40 activity (pEC50)
1,"O=C(O)CCc1ccc(C#Cc2ccccc2)cc1F [Example 1, 3-(2-Fluoro-4-(phenylethynyl)phenyl)propanoic acid]",7.48
